Reference: patent EP2140864A2 (H. Lundbeck A/S, priority 2001, dated 2002)

biological target: T1, human GAL1 receptor (Homo sapiens, UniProt P47211); experiment: Radioligand binding at cloned human GAL1 receptor; conditions: indolones, read-out: Ki GalR1
T1 construct: expressed in transfected cells
T1 sequence (P47211 1-349): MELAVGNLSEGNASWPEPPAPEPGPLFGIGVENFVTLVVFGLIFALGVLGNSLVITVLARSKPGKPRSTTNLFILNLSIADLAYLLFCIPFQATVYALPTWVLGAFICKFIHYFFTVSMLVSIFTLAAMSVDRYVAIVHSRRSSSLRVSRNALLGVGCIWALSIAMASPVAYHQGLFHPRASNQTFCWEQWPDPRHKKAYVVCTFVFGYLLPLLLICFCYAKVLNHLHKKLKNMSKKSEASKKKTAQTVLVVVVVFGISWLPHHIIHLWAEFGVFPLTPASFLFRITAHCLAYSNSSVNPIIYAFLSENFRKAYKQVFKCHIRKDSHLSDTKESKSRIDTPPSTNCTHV
Experimental: The binding properties of the pyrimidines of the present invention were evaluated at the cloned human galanin receptors, GAL1, GAL2, and GAL3, using protocols described herein. […]
(§1) LM(tk-) cells were stably transfected with the human GAL1 or GAL3 receptor. CHO cells were stably transfected with the human GAL2 receptor.
(§2) cDNAs for the human and rat GAL1, and human and rat GAL3 receptors were transfected with a G-418 resistant gene into the mouse fibroblast LM(tk-) cell line by a calcium phosphate transfection method (Cullen, 1987). Stably transfected cells were selected with G-418. Human and rat GAL2 receptors were similarly transfected into CHO cells.
(§3) Membranes were harvested from stably transfected LM(tk-) cells. Adherent cells were washed twice in ice-cold phosphate buffered saline (138 mM NaCl, 8.1 mM Na2HPO4, 2.5 mM KCl, 1.2 mM KH2PO4, 0.9 mM CaCl2, 0.5 mM MgCl2, pH 7.4) and lysed by sonication in ice-cold sonication buffer (20 mM Tris-HCl, 5 mM EDTA, pH 7.7). Large particles and debris were cleared by low speed centrifugation (200 x g, 5 min, 4°C). Membranes were collected from the supernatant fraction by centrifugation (32,000 x g, 18 min, 4°C), washed with ice-cold hypotonic buffer, and collected again by centrifugation (32,000 x g, 18 min, 4°C). The final membrane pellet was resuspended by sonication into a small volume of ice-cold binding buffer (-1 ml for every 5 plates: 10 mM NaCl, 20 mM HEPES, 0.22 mM KH2PO4, 1.26 mM CaCl2, 0.81 mM MgSO4, pH 7.4). Protein concentration was measured by the Bradford method (Bradford, 1976) using Bio-Rad Reagent, with bovine serum albumin as a standard. Membranes were held on ice for up to one hour and used fresh, or flash frozen and stored in liquid nitrogen. Membranes were prepared similarly from CHO cells.
(§4) Galanin Recentors: Binding assays were performed according to the following published methods: human GAL3 (PCT International Publication No. WO 98/15570), human GAL1 (PCT International Publication No. WO 95/2260), human GAL2 (PCT International Publication No. WO 97/26853).
(§5) Binding data were analyzed using nonlinear regression and statistical techniques available in the GraphPAD Prism package (San Diego, CA). Enzymatic assay data were derived from a standard curve of reference compound data.

Compound	Ki
COc1ccc(N=C2C(=O)N(c3ccccc3)c3ccccc32)cc1 [Example 102, 3-[(4-METHOXYPHENYL)IMINO]-1-PHENYL-1,3-DIHYDRO-2H-INDOL-2-ONE]	> 10000 nM
CC(C)N1C(=O)C(=Nc2ccc(Br)cc2)c2ccccc21 [Example 107, 3-[(4-BROMOPHENYL)IMINO]-1-ISOPROPYL-1,3-DIHYDRO-2H-INDOL-2-ONE]	> 10000 nM
CCOc1ccc(N=C2C(=O)N(c3ccccc3)c3ccccc32)cc1 [Example 101, 3-[(4-ETHOXYPHENYL)IMINO]-1-PHENYL-1,3-DIHYDRO-2H-INDOL-2-ONE]	> 10000 nM
O=C1C(=Nc2ccc(F)cc2)c2ccccc2N1c1ccccc1 [Example 99, 3-[(4-FLUOROPHENYL)IMINO]-1-PHENYL-1,3-DIHYDRO-2H-INDOL-2-ONE]	> 10000 nM
C=CCN1C(=O)C(=Nc2ccc(Cl)c(Cl)c2)c2ccccc21 [Example 105, 1-ALLYL-3-[(3,4-DICHLOROPHENYL)IMINO]-1,3-DIHYDRO-2H-INDOL-2-ONE]	> 10000 nM

same assay, conditions: pyrimidines, read-out: Ki GalR1

Compound	Ki
Cc1ccc(Nc2cc(N3CCCCC3)nc(N(C)c3ccc(C)cc3)n2)cc1 [Example 7]	1110 nM
Cc1ccc(Nc2cc(N3CCN(c4ncccc4C(F)(F)F)CC3)nc(N3CCCCC3)n2)cc1 [Example 89]	1120 nM
Cc1ccc(Nc2cc(N3CCCCC3)nc(N(C)C3CCCCC3)n2)cc1 [Example 1]	668 nM
Cc1ccc(Nc2cc(N3CCCCC3)nc(N(C)C(C)Cc3c[nH]c4ccccc34)n2)cc1 (stereo not drawn) [Example 21]	4790 nM
FC(F)(F)c1cccnc1N1CCN(c2nc(NC3CC4CCC3C4)cc(N3CCCCC3)n2)CC1 (stereo not drawn) [Example 36]	442 nM
CCN(CCc1c[nH]c2ccccc12)c1nc(Nc2ccc(C)cc2)cc(N2CCCCC2)n1 [Example 18]	3590 nM
Cc1ccc(Nc2cc(N(C)C)nc(N3CCc4ccccc43)n2)cc1 [Example 75]	1460 nM
CN(C)c1cc(NC2CCC(C(C)(C)C)CC2)nc(Nc2ccccc2)n1 (stereo not drawn) [Example 68]	> 5000 nM
CN(C)c1cc(Nc2ccc(Cl)c(Cl)c2)nc(N(C)CCc2c[nH]c3ccccc23)n1 [Example 78]	4940 nM

same assay, conditions: read-out: Ki GalR1, pyrimidines

Compound	Ki
COc1ccc(N2CCN(c3nc(Nc4ccc(C)cc4)cc(N4CCCCC4)n3)CC2)c(OC)c1 [Example 28]	> 5000 nM

biological target: T2, human GAL2 receptor (Homo sapiens, UniProt O43603); experiment: Radioligand binding at cloned human GAL2 receptor; conditions: indolones, read-out: Ki GalR2
T2 construct: expressed in transfected cells
T2 sequence (O43603 1-387): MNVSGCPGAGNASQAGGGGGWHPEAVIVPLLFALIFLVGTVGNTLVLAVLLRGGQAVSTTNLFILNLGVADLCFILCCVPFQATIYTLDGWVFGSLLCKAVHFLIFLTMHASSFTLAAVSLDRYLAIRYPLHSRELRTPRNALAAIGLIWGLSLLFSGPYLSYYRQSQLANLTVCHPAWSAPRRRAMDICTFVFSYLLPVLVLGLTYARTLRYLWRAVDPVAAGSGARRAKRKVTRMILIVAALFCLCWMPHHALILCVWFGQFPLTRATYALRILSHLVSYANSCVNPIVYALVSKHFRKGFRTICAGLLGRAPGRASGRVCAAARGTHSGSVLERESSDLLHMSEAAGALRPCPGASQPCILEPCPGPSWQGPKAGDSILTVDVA
Experimental: The binding properties of the pyrimidines of the present invention were evaluated at the cloned human galanin receptors, GAL1, GAL2, and GAL3, using protocols described herein.
The binding properties of the indolones of the present invention were evaluated at the cloned human galanin receptors, GAL1, GAL2, and GAL3, using protocols described herein.
as §1, §2, §3, §4, §5

Compound	Ki
COc1ccc(N=C2C(=O)N(c3ccccc3)c3ccccc32)cc1 [Example 102, 3-[(4-METHOXYPHENYL)IMINO]-1-PHENYL-1,3-DIHYDRO-2H-INDOL-2-ONE]	> 10000 nM
CC(C)N1C(=O)C(=Nc2ccc(Br)cc2)c2ccccc21 [Example 107, 3-[(4-BROMOPHENYL)IMINO]-1-ISOPROPYL-1,3-DIHYDRO-2H-INDOL-2-ONE]	> 10000 nM
CCOc1ccc(N=C2C(=O)N(c3ccccc3)c3ccccc32)cc1 [Example 101, 3-[(4-ETHOXYPHENYL)IMINO]-1-PHENYL-1,3-DIHYDRO-2H-INDOL-2-ONE]	> 10000 nM
O=C1C(=Nc2ccc(F)cc2)c2ccccc2N1c1ccccc1 [Example 99, 3-[(4-FLUOROPHENYL)IMINO]-1-PHENYL-1,3-DIHYDRO-2H-INDOL-2-ONE]	> 10000 nM
C=CCN1C(=O)C(=Nc2ccc(Cl)c(Cl)c2)c2ccccc21 [Example 105, 1-ALLYL-3-[(3,4-DICHLOROPHENYL)IMINO]-1,3-DIHYDRO-2H-INDOL-2-ONE]	> 10000 nM

same assay, conditions: pyrimidines, read-out: Ki GalR2

Compound	Ki
Cc1ccc(Nc2cc(N3CCCCC3)nc(N(C)c3ccc(C)cc3)n2)cc1 [Example 7]	775 nM
Cc1ccc(Nc2cc(N3CCN(c4ncccc4C(F)(F)F)CC3)nc(N3CCCCC3)n2)cc1 [Example 89]	1270 nM
Cc1ccc(Nc2cc(N3CCCCC3)nc(N(C)C3CCCCC3)n2)cc1 [Example 1]	188 nM
Cc1ccc(Nc2cc(N3CCCCC3)nc(N(C)C(C)Cc3c[nH]c4ccccc34)n2)cc1 (stereo not drawn) [Example 21]	1100 nM
FC(F)(F)c1cccnc1N1CCN(c2nc(NC3CC4CCC3C4)cc(N3CCCCC3)n2)CC1 (stereo not drawn) [Example 36]	90 nM
CCN(CCc1c[nH]c2ccccc12)c1nc(Nc2ccc(C)cc2)cc(N2CCCCC2)n1 [Example 18]	543 nM
Cc1ccc(Nc2cc(N(C)C)nc(N3CCc4ccccc43)n2)cc1 [Example 75]	2460 nM
CN(C)c1cc(NC2CCC(C(C)(C)C)CC2)nc(Nc2ccccc2)n1 (stereo not drawn) [Example 68]	2150 nM
CN(C)c1cc(Nc2ccc(Cl)c(Cl)c2)nc(N(C)CCc2c[nH]c3ccccc23)n1 [Example 78]	1860 nM

same assay, conditions: read-out: Ki GalR2, pyrimidines

Compound	Ki
COc1ccc(N2CCN(c3nc(Nc4ccc(C)cc4)cc(N4CCCCC4)n3)CC2)c(OC)c1 [Example 28]	> 5000 nM

biological target: T3, human GAL3 receptor (Homo sapiens, UniProt O60755); experiment: Radioligand binding at cloned human GAL3 receptor; conditions: indolones, cloned human receptor; read-out: Ki GalR3
T3 construct: expressed in transfected cells
T3 sequence (O60755 1-368): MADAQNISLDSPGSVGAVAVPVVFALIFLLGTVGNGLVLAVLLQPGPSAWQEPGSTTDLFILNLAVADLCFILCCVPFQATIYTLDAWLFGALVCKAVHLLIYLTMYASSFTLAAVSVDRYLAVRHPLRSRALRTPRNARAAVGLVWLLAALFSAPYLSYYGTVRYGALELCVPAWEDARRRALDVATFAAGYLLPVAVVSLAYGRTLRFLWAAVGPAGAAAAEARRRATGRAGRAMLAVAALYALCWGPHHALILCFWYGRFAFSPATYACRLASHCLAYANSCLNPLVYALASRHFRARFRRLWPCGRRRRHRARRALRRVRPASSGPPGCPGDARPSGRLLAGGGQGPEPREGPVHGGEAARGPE
How it was run: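 Compound vehicle, as final assay concentration, was 3% DMSO (indolones) or 1% ethanol/0.09% polypuronic acid F-127 (pyrimidines). Binding measured on fresh or frozen membranes of stably transfected LM(tk-) mouse fibroblasts carrying cloned human GAL3, in pH 7.4 HEPES buffer; values derived by nonlinear regression.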

Compound	Ki
COc1ccc(N=C2C(=O)N(c3ccccc3)c3ccccc32)cc1 [Example 102, 3-[(4-METHOXYPHENYL)IMINO]-1-PHENYL-1,3-DIHYDRO-2H-INDOL-2-ONE]	429 nM
CC(C)N1C(=O)C(=Nc2ccc(Br)cc2)c2ccccc21 [Example 107, 3-[(4-BROMOPHENYL)IMINO]-1-ISOPROPYL-1,3-DIHYDRO-2H-INDOL-2-ONE]	126 nM
CCOc1ccc(N=C2C(=O)N(c3ccccc3)c3ccccc32)cc1 [Example 101, 3-[(4-ETHOXYPHENYL)IMINO]-1-PHENYL-1,3-DIHYDRO-2H-INDOL-2-ONE]	305 nM
O=C1C(=Nc2ccc(F)cc2)c2ccccc2N1c1ccccc1 [Example 99, 3-[(4-FLUOROPHENYL)IMINO]-1-PHENYL-1,3-DIHYDRO-2H-INDOL-2-ONE]	229 nM
C=CCN1C(=O)C(=Nc2ccc(Cl)c(Cl)c2)c2ccccc21 [Example 105, 1-ALLYL-3-[(3,4-DICHLOROPHENYL)IMINO]-1,3-DIHYDRO-2H-INDOL-2-ONE]	97 nM

same assay, conditions: pyrimidines, cloned human receptor; read-out: Ki GalR3

Compound	Ki
Cc1ccc(Nc2cc(N3CCCCC3)nc(N(C)c3ccc(C)cc3)n2)cc1 [Example 7]	177 nM
Cc1ccc(Nc2cc(N3CCN(c4ncccc4C(F)(F)F)CC3)nc(N3CCCCC3)n2)cc1 [Example 89]	105 nM
Cc1ccc(Nc2cc(N3CCCCC3)nc(N(C)C3CCCCC3)n2)cc1 [Example 1]	35 nM
Cc1ccc(Nc2cc(N3CCCCC3)nc(N(C)C(C)Cc3c[nH]c4ccccc34)n2)cc1 (stereo not drawn) [Example 21]	49 nM
FC(F)(F)c1cccnc1N1CCN(c2nc(NC3CC4CCC3C4)cc(N3CCCCC3)n2)CC1 (stereo not drawn) [Example 36]	93 nM
CCN(CCc1c[nH]c2ccccc12)c1nc(Nc2ccc(C)cc2)cc(N2CCCCC2)n1 [Example 18]	40 nM
Cc1ccc(Nc2cc(N(C)C)nc(N3CCc4ccccc43)n2)cc1 [Example 75]	144 nM
CN(C)c1cc(NC2CCC(C(C)(C)C)CC2)nc(Nc2ccccc2)n1 (stereo not drawn) [Example 68]	164 nM
CN(C)c1cc(Nc2ccc(Cl)c(Cl)c2)nc(N(C)CCc2c[nH]c3ccccc23)n1 [Example 78]	41 nM

same assay, conditions: read-out: Ki GalR3; pyrimidines, cloned human receptor

Compound	Ki
COc1ccc(N2CCN(c3nc(Nc4ccc(C)cc4)cc(N4CCCCC4)n3)CC2)c(OC)c1 [Example 28]	270 nM
